Reference: patent publication US20140248411A1, “SWEETNESS ENHANCER” (KOREA FOOD RESEARCH INSTITUTE, priority 2011, published 2014)

Experiments:
Assay type in all cases: in vivo
[1] = Sensory evaluation, sweet taste enhancement of LHe with sodium cyclamate (15-point scale)
Description: In order to verify specificity of the sweet taste enhancement effect of LHe, a sweetener except sucrose was used as a sweet taste reference sample. […] In the experiment, panels well trained in the basic tastes participated, and the presented samples were maintained at room temperature. After having a taste of the reference sample, the mouth was rinsed with water, and then after having a taste of the sample, intensity of each basic taste was evaluated.
In order to verify specificity of the sweet taste enhancement effect of LHe, a sweetener, except sucrose, was used as a sweet taste reference sample.

[2] = Sensory evaluation, sweet taste enhancement of LHe with sucrose (15-point scale)
Description: In order to more accurately verify the sweet taste enhancement effect of LHe, 2, 5, 10, and 15% sucrose solutions were used as sweet taste reference samples. An LHe solution (300 μg/mL) and an LHe+5% sucrose solution were presented as samples, and sweet taste intensities thereof were measured by a 15-point scale method. Here, the sweet taste intensities of sweet taste reference samples, 2, 5, 10, and 16% sucrose solutions were presented to be 2, 5, 10, and 15 points, respectively, according to the method of Meilgaard et al.
In order to more accurately verify the sweet taste enhancement effect of LHe, 2, 5, 10, and 15% sucrose solutions were used as sweet taste reference samples. A 300 μg/mL LHe solution and a 300 μg/mL LHe+5% sucrose solution were presented as samples, and sweet taste intensities thereof were measured by a 15-point scale method. Here, the sweet taste reference samples, 2, 5, 10, and 16% sucrose solutions were respectively presented to be 2, 5, 10, and 15 points according to the method of Meilgaard et al. (1987).

[3] = Sensory evaluation on Met-Asn peptide
Description: Sensory evaluation was conducted to validate the role of Met-Asn peptide itself, without sugar binding thereto, on the sweetening effect. […] When a Met-Asn peptide+5% sucrose solution was presented as a sample, the sweet taste intensity thereof was 5.00±0.23, which was not shown to have a significant difference from that of the 5% sucrose solution. […] Accordingly, the sweetness effect of the fraction containing the Met-Asn peptide may be due to the sugar structure binding.

## O=S(=O)(O)NC1CCCCC1 [cyclamate, sodium cyclamate]
[1]; 0.056% cyclamate reference sample
  sweet taste intensity: 2.00±0.00
[1]; 0.14% cyclamate reference sample
  sweet taste intensity: 5.00±0.00

## OC[C@H]1O[C@@](CO)(O[C@H]2O[C@H](CO)[C@@H](O)[C@H](O)[C@H]2O)[C@@H](O)[C@@H]1O [sucrose]
[2]; 2% sucrose reference sample
  sweet taste intensity: 2.00±0.00
[2]; 5% sucrose reference sample
  sweet taste intensity: 5.00±0.00
[3]; 5% sucrose reference sample
  sweet taste intensity: 5.00±0.00

## Met-Asn [Met-Asn peptide]
[3]; Met-Asn peptide + 5% sucrose solution
  sweet taste intensity: 5.00±0.23
[3]; Met-Asn peptide itself, without sugar binding
  sweet taste intensity: 0.13±0.04
